The structures appear in SMILES notation. Activity calls are given as the source filed them. No cut-off for these calls is given here.

One may read the Kd as the equilibrium constant for the complex coming apart. The IC50 is the concentration that gives 50% inhibition.

Experiment [1] relates to Calf thymus DNA. Description: Binding affinity to calf thymus DNA assessed as dissociation constant by UV-Vis spectroscopic analysis. It is filed as nucleic-acid assay, Bos taurus.
Experiment [2] has as its system Calf thymus DNA. Description: Binding affinity to calf thymus DNA assessed as dissociation constant. It is filed as nucleic-acid assay, Bos taurus.
The subject of a further experiment is HeLa. The experiment in a line: Cytotoxicity against human HeLa cells assessed as reduction in cell viability incubated for 24 hrs by MTT assay. It is filed as functional, cell-based. Background: Formazan colour is commonly taken as a measure of viable cells.
A further experiment concerns SK-OV-3. The experiment in a line: Cytotoxicity against human SK-OV-3 cells assessed as reduction in cell viability incubated for 24 hrs by MTT assay. It is filed as functional, cell-based. Particulars: SK-OV-3, 24 h.
The test system of another experiment is HEK293. The experiment in a line: Cytotoxicity against human HEK293 cells assessed as reduction in cell viability incubated for 24 hrs by MTT assay. It is filed as functional, cell-based. Conditions: HEK293, 24 h.
For a further experiment, the system named is B16-F10. The experiment in a line: Cytotoxicity against mouse B16F10 cells assessed as reduction in cell viability incubated for 24 hrs by MTT assay. Conditions: B16-F10, 24 h. It is filed as functional, cell-based.
For experiment [3], the system named is Calf thymus DNA. Description: Binding affinity to calf thymus DNA assessed as change in absorption by UV-Vis spectrophotometric analysis. It is filed as nucleic-acid assay. Conditions: Bos taurus.
The test system of the next experiment is OVCAR-3. Description: Cytotoxicity against human OVCAR-3 cells assessed as reduction in cell viability incubated for 24 hrs by MTT assay. It is filed as functional, cell-based. Particulars: OVCAR-3, 24 h.
The test system of experiment [4] is Calf thymus DNA. The experiment in a line: Binding affinity to calf thymus DNA assessed as dissociation constant measured at 332 nm absorbance by UV-Vis spectroscopic analysis. It is filed as nucleic-acid assay, Bos taurus.
In experiment [5] the test system is Calf thymus DNA. Description: Binding affinity to calf thymus DNA assessed as dissociation constant measured at 337 nm absorbance by UV-Vis spectroscopic analysis. It is filed as nucleic-acid assay, Bos taurus.
In experiment [6] the test system is Calf thymus DNA. The experiment in a line: Binding affinity to calf thymus DNA assessed as dissociation constant by reverse titration method. It is filed as nucleic-acid assay, Bos taurus.

As for `C[n+]1c2ccccc2cc2[n-]c3ccccc3c21` [CRYPTOLEPINE], the values for the Kd with Calf thymus DNA [1] and with Calf thymus DNA [2] were 0.24 µM and 0.33 µM, respectively.

Turning to `Cn1c2ccccc2c2cc3ccccc3nc21`, the IC50 in the experiment on HeLa, in the experiment on SK-OV-3, with HEK293, in the experiment with B16-F10 and in the experiment with OVCAR-3 was over 100 µM each time. Moreover, the outcome with Calf thymus DNA [3] was Active.

Regarding `c1ccc(Cn2c3ccccc3c3cc4ccccc4nc32)cc1`, in the experiment with Calf thymus DNA [3], the result was Active.

As to `CN1CCN(CCCn2c3ccccc3c3cc4ccccc4nc32)CC1`, the result with Calf thymus DNA [3] was Active.

For the compound `c1ccc2nc3c(cc2c1)c1ccccc1n3CCCN1CCOCC1`, the result in the experiment with Calf thymus DNA [3] was Active.

As for `c1ccc2[nH]c3nc4ccccc4c-3cc2c1`, the IC50 in the experiment with HeLa, in the experiment on SK-OV-3, in the experiment on HEK293, with B16-F10 and in the experiment with OVCAR-3 was over 100 µM throughout. For the same compound, the result in the experiment on Calf thymus DNA [3] was Active.

Regarding `c1ccc2nc3c(cc2c1)c1ccccc1n3CCCN1CCCC1`, in the experiment on Calf thymus DNA [3], the outcome was Active.

As for `c1ccc(-n2c3ccccc3c3cc4ccccc4nc32)cc1`, the outcome in the experiment with Calf thymus DNA [3] was Active.

On to `CN(C)CCCn1c2ccccc2c2cc3ccccc3nc21`, for which the Kd in the experiment on Calf thymus DNA [4] is 10 µM; with Calf thymus DNA [5] it was 120 µM; in the experiment with Calf thymus DNA [1], 20 µM; in the experiment with Calf thymus DNA [6], 17 µM. For the same compound, the result with Calf thymus DNA [3] was Active.

For the compound `CN(C)CCn1c2ccccc2c2cc3ccccc3nc21`, in the experiment on Calf thymus DNA [3], the result was Active.

Consider `c1ccc2nc3c(cc2c1)c1ccccc1n3CCCn1ccnc1`, for which the result with Calf thymus DNA [3] was Active.

For the compound `CN(CCCn1c2ccccc2c2cc3ccccc3nc21)CCCn1c2ccccc2c2cc3ccccc3nc21`, the result in the experiment with Calf thymus DNA [3] was Active.

On to `CCCCn1c2ccccc2c2cc3ccccc3nc21`, for which, in the experiment with Calf thymus DNA [3], the result was Active.

As for `CN(C)CCCCn1c2ccccc2c2cc3ccccc3nc21`, the outcome with Calf thymus DNA [3] was Active.
